In US20260070891A1, “METHOD FOR PRODUCING QUINOXALINE DERIVATIVE” (Kyowa Kirin Co., Ltd., priority 2022, published 2026):

How the values were obtained:
[1] = Crystal form stability on standing at room temperature, rechecked by powder X-ray diffraction (Test Example 1); type: physicochemical; conditions: allowed to stand for 8 weeks at room temperature
Method: In addition, the measurement of powder X-ray diffraction (reflection method) was performed by pulverizing a sample in an agate mortar, taking an appropriate amount of the sample into a sample plate, and measuring a diffraction peak such that a diffraction angle 20 includes a range of 5° to 40°. The X-ray to be radiated was a copper Ka ray (CuKα ray), and the tube voltage was set to 50 kV, the tube current was set to 1 mA, and the step time was set to 120 seconds. The thermal analysis was performed by taking 2 mg of the sample into an aluminum pan and measuring differential scanning calorimetry (DSC) under a condition of a heating rate of 5° C./min. For the measurement of powder X-ray diffraction (reflection method), D8 DISCOVER manufactured by Bruker AXS was used.
The type II crystal of (R)—N-(3-{2,2,2-trifluoro-1-[6-(2-methyl-2H-1,2,3-triazol-4-yl)pyridin-3-yl]ethoxy}quinoxalin-2-yl) propane-1-sulfonamide obtained in step 3 of Example 1 was allowed to stand for 8 weeks at room temperature.

[2] = Long-term storage stability of crystal at 25° C. and 60% RH (Test Example 1); type: physicochemical; conditions: 25° C. and 60% RH for 5 years

| SMILES | crystal form after standing (powder X-ray diffraction) [1] | stability (properties, related substances, optical isomers, content, powder X-ray diffraction pattern) [2] |
| --- | --- | --- |
| CCCS(=O)(=O)Nc1nc2ccccc2nc1O[C@H](c1ccc(-c2cnn(C)n2)nc1)C(F)(F)F [type II crystal, (R)—N-(3-{2,2,2-trifluoro-1-[6-(2-methyl-2H-1,2,3-triazol-4-yl)pyridin-3-yl]ethoxy}quinoxalin-2-yl) propane-1-sulfonamide] | transition to a mixed crystal of the type III crystal and the type II crystal |  |
| CCCS(=O)(=O)Nc1nc2ccccc2nc1O[C@H](c1ccc(-c2cnn(C)n2)nc1)C(F)(F)F [type III crystal, (R)—N-(3-{2,2,2-trifluoro-1-[6-(2-methyl-2H-1,2,3-triazol-4-yl)pyridin-3-yl]ethoxy}quinoxalin-2-yl)propane-1-sulfonamide] |  | no changes in the properties, related substances, optical isomers, content, or powder X-ray diffraction pattern |
